Measured values as given in patent publication US12617773B2, “Azetidin-3-ylmethanol derivatives as CCR6 receptor modulators” (Idorsia Pharmaceuticals Ltd, priority 2020, dated 2026).

Molecular target: T1, human CCR6 (Homo sapiens, UniProt P51684)
T1 construct: expressed in transfected cells; host or cells: HEK-293
T1 sequence (P51684 1-374): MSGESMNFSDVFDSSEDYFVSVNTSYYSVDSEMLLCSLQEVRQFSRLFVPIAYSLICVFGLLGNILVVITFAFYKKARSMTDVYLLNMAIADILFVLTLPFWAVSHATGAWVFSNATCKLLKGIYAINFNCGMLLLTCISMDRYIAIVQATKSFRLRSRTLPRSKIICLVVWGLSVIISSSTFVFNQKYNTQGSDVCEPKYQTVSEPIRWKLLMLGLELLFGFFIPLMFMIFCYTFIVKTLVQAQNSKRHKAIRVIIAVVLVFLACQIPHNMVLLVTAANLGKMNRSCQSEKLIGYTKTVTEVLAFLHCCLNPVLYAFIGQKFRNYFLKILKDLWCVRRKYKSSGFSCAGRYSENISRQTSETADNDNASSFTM
Assay: FLIPR assay (inhibition of CCL20-induced calcium signal)
Format: cell-based
Conditions: HEK-293 cells expressing human CCR6; mean values where determined several times; read-out: FLIPR IC50
Procedure: FLIPR assay: The bioactivity of compounds is tested in a fluorometric imaging plate reader (FLIPR: Molecular Devices) using engineered HEK-293 cells expressing the human CCR6 (GenBank: AY242126). Frozen cells are plated on Poly-L-Lysine precoated 384-well plates 2 days prior to bioassay in DMEM medium supplemented with 10% FCS and 1% Penicillin-Streptomycin. […] This buffer, but lacking the dye, is also used for washing and compound dilution steps (assay buffer). Cells are washed free of excess dye with a wash-station (Biotek), leaving 40 microliter of assay buffer at the end. Cells were incubated for 15 minutes at room temperature in the dark, before adding compounds. Stock solutions of test compounds are made up at a concentration of 10 mM in DMSO, and serially diluted first in DMSO and then transferred in assay buffer to concentrations required for inhibition dose response curves. After a 45-minute incubation period in assay buffer at room temperature, 10 microliters of each compound dilution are transferred from a compound plate to the plate containing the recombinant cells in the FLIPR instrument according to the manufacturer's instructions. After cells and compounds were preincubated for 30 minutes at room temperature in the dark, 10 microliter agonist CCL20 (Peprotech) at a final concentration of 10 nM is added, again using the FLIPR instrument. Changes in fluorescence are monitored before and after addition of the test compounds and agonist. Emission peak values above base level after CCL20 addition are exported after base line subtraction.
The calculated IC50 values may fluctuate depending on the daily assay performance. Fluctuations of this kind are known to those skilled in the art.

IC50	Compound
0.0735 µM	CC(C)(C)N1CC(C)([C@](O)(c2ccc(OC(F)(F)F)cc2)c2cncc(N3CCCC3)c2)C1 [Example 12, (R)-(1-tert-Butyl-3-methyl-azetidin-3-yl)-(5-pyrrolidin-1-yl-pyridin-3-yl)-(4-trifluoromethoxy-phenyl)-methanol]
0.0435 µM	COCC#Cc1cncc(C(O)(c2ccc(C(C)C)cc2)C2(C)CN(C)C2)c1 (centres unmarked) [Example 13, (1,3-Dimethyl-azetidin-3-yl)-(4-isopropyl-phenyl)-[5-(3-methoxy-prop-1-ynyl)-pyridin-3-yl]-methanol]
0.0706 µM	CC(C)c1ccc([C@](O)(c2cncc(CC#CO)c2)C2(C)CN(C)C2)cc1 [Example 14, 3-{5-[(R)-(1,3-Dimethyl-azetidin-3-yl)-hydroxy-(4-isopropyl-phenyl)-methyl]-pyridin-3-yl}-prop-1-yn-1-ol]
0.0808 µM	CC(C)c1ccc([C@](O)(c2cncc(C#CC(C)(C)O)c2)C2(C)CN(C)C2)cc1 [Example 15, 4-{5-[(R)-(1,3-Dimethyl-azetidin-3-yl)-hydroxy-(4-isopropyl-phenyl)-methyl]-pyridin-3-yl}-2-methyl-but-3-yn-2-ol]
0.052 µM	CC(C)c1ccc([C@](O)(c2cncc(C#C[C@@H](C)O)c2)C2(C)CN(C)C2)cc1 [Example 16]
0.0535 µM	CC(C)c1ccc([C@](O)(c2cncc(C#C[C@H](C)O)c2)C2(C)CN(C)C2)cc1 [Example 17]
0.0335 µM	CC(C)c1ccc([C@](O)(c2cncc(C#CC3(O)CCCC3)c2)C2(C)CN(C)C2)cc1 [Example 18]
0.0449 µM	CC(C)c1ccc([C@](O)(c2cncc(C#CC3(O)CC3)c2)C2(C)CN(C)C2)cc1 [Example 19]
0.023 µM	CC(C)c1ccc([C@](O)(c2cncc(C#CC3(O)CN(C(=O)OC(C)(C)C)C3)c2)C2(C)CN(C)C2)cc1 [Example 20]
0.0479 µM	CC(C)c1ccc([C@](O)(c2cncc(C#CC3(O)CCC3)c2)C2(C)CN(C)C2)cc1 [Example 21]
0.126 µM	CC(C)c1ccc([C@](O)(c2cncc(C#CCCO)c2)C2(C)CN(C)C2)cc1 [Example 22]
0.0468 µM	CC(C)c1ccc([C@](O)(c2cncc(C#Cc3cnn(C)c3)c2)C2(C)CN(C)C2)cc1 [Example 23]
0.00644 µM	CC(C)c1ccc([C@](O)(c2cncc(C#CC(O)c3ccccc3)c2)C2(C)CN(C)C2)cc1 (some centres unmarked) [Example 24]
0.00769 µM	CC(C)c1ccc([C@](O)(c2cncc(C#CC(C)(O)c3ccccc3)c2)C2(C)CN(C)C2)cc1 (some centres unmarked) [Example 25]
0.013 µM	CC(C)c1ccc([C@](O)(c2cncc(C#CC(O)C(C)C)c2)C2(C)CN(C)C2)cc1 (some centres unmarked) [Example 26]
0.0437 µM	CC(C)c1ccc([C@](O)(c2cncc(C#CC3(O)CCOCC3)c2)C2(C)CN(C)C2)cc1 [Example 27]
0.0446 µM	CC(C)c1ccc([C@](O)(c2cncc(C#CC(O)C3CCOCC3)c2)C2(C)CN(C)C2)cc1 (some centres unmarked) [Example 28]
0.0855 µM	Cc1nn(C)cc1C(O)C#Cc1cncc([C@@](O)(c2ccc(C(C)C)cc2)C2(C)CN(C)C2)c1 (some centres unmarked) [Example 29]
0.0339 µM	CC(C)c1ccc([C@](O)(c2cncc(C#CC3CCOCC3)c2)C2(C)CN(C)C2)cc1 [Example 30]
0.0812 µM	Cc1nc(C(O)C#Cc2cncc([C@@](O)(c3ccc(C(C)C)cc3)C3(C)CN(C)C3)c2)cs1 (some centres unmarked) [Example 31]
0.0187 µM	CC(C)c1ccc([C@](O)(c2cncc(C#CC(C)(O)c3cccc(F)c3)c2)C2(C)CN(C)C2)cc1 (some centres unmarked) [Example 32]
0.0208 µM	COc1ccc(C(C)(O)C#Cc2cncc([C@@](O)(c3ccc(C(C)C)cc3)C3(C)CN(C)C3)c2)cc1 (some centres unmarked) [Example 33]
0.0211 µM	COc1ccccc1C(C)(O)C#Cc1cncc([C@@](O)(c2ccc(C(C)C)cc2)C2(C)CN(C)C2)c1 (some centres unmarked) [Example 34]
0.141 µM	CC(C)c1ccc([C@](O)(c2cncc(C#CC(C)(O)c3ccn(C)n3)c2)C2(C)CN(C)C2)cc1 (some centres unmarked) [Example 35]

IC50	Compound
0.0617 µM	Cc1nc(C(C)(O)C#Cc2cncc([C@@](O)(c3ccc(C(C)C)cc3)C3(C)CN(C)C3)c2)cs1 (some centres unmarked) [Example 36]
0.0207 µM	COc1cccc(C(C)(O)C#Cc2cncc([C@@](O)(c3ccc(C(C)C)cc3)C3(C)CN(C)C3)c2)n1 (some centres unmarked) [Example 37]
0.13 µM	CC(C)c1ccc([C@](O)(c2cncc(C#CC(C)(O)c3ncccn3)c2)C2(C)CN(C)C2)cc1 (some centres unmarked) [Example 38]
0.0765 µM	Cc1cc(C(C)(O)C#Cc2cncc([C@@](O)(c3ccc(C(C)C)cc3)C3(C)CN(C)C3)c2)nn1C (some centres unmarked) [Example 39]
0.0925 µM	Cc1cc(C(C)(O)C#Cc2cncc(C(O)(c3ccc(C(C)C)cc3)C3(C)CN(C)C3)c2)ncn1 (centres unmarked) [Example 40]
0.133 µM	Cc1cc(C(O)C#Cc2cncc([C@@](O)(c3ccc(C(C)C)cc3)C3(C)CN(C)C3)c2)nn1C (some centres unmarked) [Example 41]
0.0415 µM	CC(C)c1ccc([C@](O)(c2cncc(C#CC3(O)CCCc4cccnc43)c2)C2(C)CN(C)C2)cc1 (some centres unmarked) [Example 42]
0.0559 µM	CC(C)c1ccc([C@](O)(c2cncc(C#CC3(O)CCc4cccnc43)c2)C2(C)CN(C)C2)cc1 (some centres unmarked) [Example 43]
0.0633 µM	CCC(O)(C#Cc1cncc([C@@](O)(c2ccc(C(C)C)cc2)C2(C)CN(C)C2)c1)c1ccccn1 (some centres unmarked) [Example 44]
0.0328 µM	CCC(O)(C#Cc1cncc([C@@](O)(c2ccc(C(C)C)cc2)C2(C)CN(C)C2)c1)c1cccc(OC)n1 (some centres unmarked) [Example 45]
0.145 µM	CC(C)C(=O)N1CC(O)(C#Cc2cncc([C@@](O)(c3ccc(C(C)C)cc3)C3(C)CN(C)C3)c2)C1 [Example 46]
0.035 µM	CC(C)c1ccc([C@](O)(c2cncc(C#Cc3cc4ccccc4[nH]3)c2)C2(C)CN(C)C2)cc1 [Example 47, (R)-(1,3-Dimethyl-azetidin-3-yl)-[5-(1H-indol-2-ylethynyl)-pyridin-3-yl]-(4-isopropyl-phenyl)-methanol]
0.1 µM	COCCCc1cncc(C(O)(c2ccc(C(C)C)cc2)C2(C)CN(C)C2)c1 (centres unmarked) [Example 48, (1,3-Dimethyl-azetidin-3-yl)-(4-isopropyl-phenyl)-[5-(3-methoxy-propyl)-pyridin-3-yl]-methanol]
0.219 µM	CC(C)c1ccc([C@](O)(c2cncc(CCCO)c2)C2(C)CN(C)C2)cc1 [Example 49]
0.0902 µM	CC(C)c1ccc([C@](O)(c2cncc(CCC(C)(C)O)c2)C2(C)CN(C)C2)cc1 [Example 50]
0.134 µM	CC(C)c1ccc([C@](O)(c2cncc(CC[C@H](C)O)c2)C2(C)CN(C)C2)cc1 [Example 51]
0.2 µM	CC(C)c1ccc([C@](O)(c2cncc(CC[C@@H](C)O)c2)C2(C)CN(C)C2)cc1 [Example 52]
0.0463 µM	CC(C)c1ccc([C@](O)(c2cncc(CCC3(O)CCCC3)c2)C2(C)CN(C)C2)cc1 [Example 53]
0.0669 µM	CC(C)c1ccc([C@](O)(c2cncc(CCC3(O)CC3)c2)C2(C)CN(C)C2)cc1 [Example 54]
0.0658 µM	CC(C)c1ccc([C@](O)(c2cncc(CCC3(O)CN(C(=O)OC(C)(C)C)C3)c2)C2(C)CN(C)C2)cc1 [Example 55]
0.061 µM	CC(C)c1ccc([C@](O)(c2cncc(CCC3(O)CCC3)c2)C2(C)CN(C)C2)cc1 [Example 56]
0.349 µM	CC(C)c1ccc([C@](O)(c2cncc(CCCCO)c2)C2(C)CN(C)C2)cc1 [Example 57]
0.44 µM	CC(C)c1ccc([C@](O)(c2cncc(CCc3cnn(C)c3)c2)C2(C)CN(C)C2)cc1 [Example 58]
